In brackets after ≈: the same amount, converted by molar mass.
Legend:
[1] = target: T1, glucocerebrosidase (Gcase) (Homo sapiens, UniProt P04062); test: Glucocerebrosidase (Gcase) activation assay, 4-methylumbelliferyl-beta-D-glucopyranoside substrate, with saposin C; format: biochemical; conditions: for activation at 0.1 µM: 0.1 μM test compound, read-out: Percent Gcase Activation 0.1 μM Test Compound; for activation at 1 µM: 1 μM test compound, read-out: Percent Gcase Activation 1 μM Test Compound
T1 sequence (P04062 40-536): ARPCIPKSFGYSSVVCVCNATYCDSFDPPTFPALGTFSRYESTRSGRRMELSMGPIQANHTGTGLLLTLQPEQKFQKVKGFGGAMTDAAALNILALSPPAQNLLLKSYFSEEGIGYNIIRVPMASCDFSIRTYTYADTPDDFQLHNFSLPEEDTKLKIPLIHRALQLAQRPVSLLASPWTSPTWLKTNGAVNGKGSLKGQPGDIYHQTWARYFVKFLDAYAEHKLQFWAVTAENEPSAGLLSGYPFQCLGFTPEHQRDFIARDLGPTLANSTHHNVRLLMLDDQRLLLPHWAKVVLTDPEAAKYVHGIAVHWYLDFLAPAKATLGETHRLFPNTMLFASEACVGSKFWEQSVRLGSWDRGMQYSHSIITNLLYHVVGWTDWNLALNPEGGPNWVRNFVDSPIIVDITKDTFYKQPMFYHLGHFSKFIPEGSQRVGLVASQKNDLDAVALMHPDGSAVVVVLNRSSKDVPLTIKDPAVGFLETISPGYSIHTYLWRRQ
Procedure: The ability of exemplary compounds to activate glucocerebrosidase (Gcase) was measured.
A 484 μL aliquot of a 1.0 mg/mL solution of phosphatidylserine (PS) (Sigma P7769) in chloroform was evaporated under a stream of nitrogen for 1 hour. The lipid film was dissolved over 4 minutes of vigorous vortexing in 40 mL of 176 mM K2HPO4/50 mM citric acid (pH 4.7) containing 7.5 μL of triton X-100, resulting in a mixed micellar preparation with a composition of 0.32 mM triton and 0.37 mol % PS. 4-Methylumbelliferyl-beta-D-glucopyranoside (ACROS-337025000) was dissolved in the micellar solution to a final concentration of 2 mM for use as the reaction substrate.
Test compounds were diluted to the desired concentrations with dimethylsulfoxide (DMSO) from 10 mM stocks, and 0.41 μL of the DMSO compound mixture was added to 100 μL of micellar solution containing 10 nM GCase and 100 nM saposin C (Enzo ALX-201-262-C050). Pre-incubation was allowed to occur for 30 minutes at room temperature, after which the reaction was initiated by combining 25 μL of substrate solution with 25 μL of compound/GCase/saposin mixture. The reaction proceeded for 15 minutes at room temperature and was stopped by adding 150 μL of 1M glycine, pH 12.5. The endpoint of the reaction was monitored by measuring fluorescence intensity (excitation: 365 nm; emission: 440 nm) on a SpectraMax i3 instrument (Molecular Devices). Test compounds were screened at 1.0 and 0.1 μM final concentration, and subsequent 8-point dose response curves were obtained using 3-fold dilutions from a maximum final concentration of […].

[2] = Compound solubility in water; format: physicochemical

Row | Structure (SMILES) | activation at 0.1 µM [1] | activation at 1 µM [1] | solubility [2]
1 | COCc1cc(-c2ccc(F)cc2)n2cnc(C(=O)N[C@@H](C)C3CC3)c2n1 [III-35] | < 10% | < 30% | 43.5 µg/mL (≈ 118 µM)
2 | COCc1cc(-c2ccc(F)cc2)nc2c(C(=O)N[C@@H](C)C3CC3)ncn12 [III-36] | 10 to 20% | > 60% | 22 µg/mL (≈ 59.7 µM)
3 | C[C@H](NC(=O)c1ncn2cc(-c3ccc(F)cc3)cnc12)C1CC1 [III-37] | < 10% | < 30% | 2.2 µg/mL (≈ 6.78 µM)
4 | Cc1cc(-c2cccnc2)nc2c(C(=O)NC(C)(C)C3CC3)ncn12 [III-41] | < 10% | 30 to 60% | 27.1 µg/mL (≈ 80.8 µM)
5 | Cc1cc(-c2ccccn2)nc2c(C(=O)NC(C)(C)C3CC3)ncn12 [III-42] | < 10% | > 60% | 4 µg/mL (≈ 11.9 µM)
6 | Cc1cc(-c2cccnc2)nc2c(C(=O)NC(C)C3CC3)ncn12 (stereo not drawn) [III-43] | < 10% | < 30% | 31.1 µg/mL (≈ 96.8 µM)
7 | Cc1cc(-c2ccccn2)nc2c(C(=O)NC(C)C3CC3)ncn12 (stereo not drawn) [III-44] | < 10% | < 30% | 26 µg/mL (≈ 80.9 µM)
8 | Cc1cc(-c2cccnc2)nc2c(C(=O)N[C@@H](C)c3ccccc3F)ncn12 [III-45] | < 10% | 30 to 60% | 5 µg/mL (≈ 13.3 µM)
9 | Cc1cc(C)n2cnc(C(=O)NC(C)(C)CC3CC3)c2n1 [III-46] | < 10% | > 60% | 12 µg/mL (≈ 41.9 µM)
10 | Cc1cc(C)n2cnc(C(=O)NC(C)C(C)C3CC3)c2n1 (stereo not drawn) [III-47] | < 10% | 30 to 60% | 24.2 µg/mL (≈ 84.5 µM)
11 | Cc1cc(-c2cccnc2)nc2c(C(=O)NC(c3ccc(F)cc3)C(F)(F)F)ncn12 (stereo not drawn) [III-48] | > 20% | > 60% | 7.1 µg/mL (≈ 16.5 µM)
12 | Cc1cc(-c2ccccn2)nc2c(C(=O)NC(c3ccc(F)cc3)C(F)(F)F)ncn12 (stereo not drawn) [III-49] | > 20% | > 60% | 6.7 µg/mL (≈ 15.6 µM)
13 | Cc1cc(-c2cccc(F)c2)nc2c(C(=O)NC(C)C3CC3)ncn12 (stereo not drawn) [III-50] | > 20% | > 60% | 33.3 µg/mL (≈ 98.4 µM)
14 | Cc1cc(-c2ccccc2F)nc2c(C(=O)NC(C)C3CC3)ncn12 (stereo not drawn) [III-51] | < 10% | > 60% | 22.7 µg/mL (≈ 67.1 µM)
15 | COc1ccccc1-c1cc(C)n2cnc(C(=O)NC(C)C3CC3)c2n1 (stereo not drawn) [III-52] | > 20% | > 60% | 11.6 µg/mL (≈ 33.1 µM)
16 | COc1cccc(-c2cc(C)n3cnc(C(=O)NC(C)C4CC4)c3n2)c1 (stereo not drawn) [III-55] | > 20% | > 60% | 7.8 µg/mL (≈ 22.3 µM)
17 | Cc1cc(-c2cnccn2)nc2c(C(=O)NC(C)(C)C3CC3)ncn12 [III-56] | < 10% | 30 to 60% | 16.2 µg/mL (≈ 48.2 µM)
18 | Cc1cc(-c2cncnc2)nc2c(C(=O)NC(C)(C)C3CC3)ncn12 [III-57] | < 10% | < 30% | 23.4 µg/mL (≈ 69.6 µM)
19 | Cc1cc(-c2cncs2)nc2c(C(=O)NC(C)(C)C3CC3)ncn12 [III-58] | < 10% | > 60% | 44.4 µg/mL (≈ 130 µM)
20 | Cc1cc(-c2cnsc2)nc2c(C(=O)NC(C)(C)C3CC3)ncn12 [III-59] | 10 to 20% | > 60% | 2.1 µg/mL (≈ 6.15 µM)
21 | Cc1cc(-c2ccns2)nc2c(C(=O)NC(C)(C)C3CC3)ncn12 [III-60] | 10 to 20% | > 60% | 4 µg/mL (≈ 11.7 µM)
22 | Cc1cc(-c2nccs2)nc2c(C(=O)NC(C)(C)C3CC3)ncn12 [III-61] | 10 to 20% | > 60% | 5.5 µg/mL (≈ 16.1 µM)
23 | Cc1cc(-c2cscn2)nc2c(C(=O)NC(C)(C)C3CC3)ncn12 [III-62] | < 10% | > 60% | 6.3 µg/mL (≈ 18.5 µM)
